According to patent publication US20170000133A1, “BENZOXABOROLE FUNGICIDES” (SYNGENTA PARTICIPATIONS AG, priority 2013, published 2017):

The molecules below were run on Plasmopara viticola (assay: whole plant or invertebrate). Conditions: foliar, read-out: disease control.
Type: in vivo

Structure (SMILES) | pest or weed control at 200 ppm
O=C(NCc1ccccc1F)c1cc2c(cc1Cl)COB2O [Compound 73] | ≥ 80%
O=C(NCc1ccccc1OC(F)(F)F)c1cc2c(cc1Cl)COB2O [Compound 95] | ≥ 80%
O=C(NCc1ccc(Oc2ccccc2)cc1)c1cc2c(cc1Cl)COB2O [Compound 103] | ≥ 80%
CC(NC(=O)c1cc2c(cc1F)COB2O)c1ccccc1 (centres unmarked) [Compound 109] | ≥ 80%
O=C(Nc1ccc(S(=O)(=O)Nc2ccccn2)cc1)c1cc2c(cc1Cl)COB2O [Compound 143] | ≥ 80%
COc1ccc(NC(=O)c2cc3c(cc2F)COB3O)c(OC)c1 [Compound 155] | ≥ 80%
O=C(Nc1ccccc1N1CCOCC1)c1cc2c(cc1F)COB2O [Compound 170] | ≥ 80%
O=C(Nc1ccc(S(=O)(=O)Nc2ccccn2)cc1)c1cc2c(cc1F)COB2O [Compound 174] | ≥ 80%
O=C(Nc1ccc2ccccc2n1)c1cc2c(cc1F)COB2O [Compound 179] | ≥ 80%
Cc1nnc(NC(=O)c2cc3c(cc2F)COB3O)s1 [Compound 184] | ≥ 80%
O=C(Nc1ccc(Oc2ccccc2)nc1)c1cc2c(cc1F)COB2O [Compound 185] | ≥ 80%
N#CCOC(=O)c1cc2c(cc1Cl)COB2O [Compound 213] | ≥ 80%
O=C(NCc1ccccc1F)c1ccc2c(c1)B(O)OC2 [Compound 262] | ≥ 80%
O=C(NCc1cccc(Cl)c1)c1ccc2c(c1)B(O)OC2 [Compound 268] | ≥ 80%
O=C(NCc1ccccc1OC(F)(F)F)c1ccc2c(c1)B(O)OC2 [Compound 273] | ≥ 80%
CC(C)c1ccc(NC(=O)c2ccc3c(c2)B(O)OC3)cc1 [Compound 279] | ≥ 80%
COc1ccc(NC(=O)c2ccc3c(c2)B(O)OC3)c(OC)c1 [Compound 283] | ≥ 80%
O=C(Nc1cccc(F)c1)c1ccc2c(c1)B(O)OC2 [Compound 285] | ≥ 80%
COc1ccc(-c2ccccc2)cc1NC(=O)c1ccc2c(c1)B(O)OC2 [Compound 289] | ≥ 80%
O=C(Nc1ccccc1-c1cc2ccccc2[nH]1)c1ccc2c(c1)B(O)OC2 [Compound 292] | ≥ 80%
O=C(Nc1ccc(Oc2ccccc2)nc1)c1ccc2c(c1)B(O)OC2 [Compound 306] | ≥ 80%
COC(=O)c1sccc1NC(=O)c1ccc2c(c1)B(O)OC2 [Compound 308] | ≥ 80%
CC(F)COC(=O)c1ccc2c(c1)B(O)OC2 (centres unmarked) [Compound 335] | ≥ 80%
N#CCOC(=O)c1ccc2c(c1)B(O)OC2 [Compound 338] | ≥ 80%
N#CCCOC(=O)c1ccc2c(c1)B(O)OC2 [Compound 357] | ≥ 80%
O=C(OC1CCOC1)c1ccc2c(c1)B(O)OC2 (centres unmarked) [Compound 364] | ≥ 80%

Each molecule was assayed on Pythium ultimum (assay: Pythium ultimum / liquid culture (seedling damping off)). Conditions: Globisporangium ultimum; 200 ppm; potato dextrose broth, 24° C., 2-3 days after application; read-out: disease control (inhibition of growth determined photometrically).
Type: cell-based

Structure (SMILES) | inhibition at 200 ppm
O=C(NCc1ccccc1F)c1cc2c(cc1Cl)COB2O [Compound 73] | ≥ 80%
O=C(NCc1ccc(Oc2ccccc2)cc1)c1cc2c(cc1Cl)COB2O [Compound 103] | ≥ 80%
CC(NC(=O)c1cc2c(cc1F)COB2O)c1ccccc1 (centres unmarked) [Compound 109] | ≥ 80%
O=C(Nc1ccc(S(=O)(=O)Nc2ccccn2)cc1)c1cc2c(cc1Cl)COB2O [Compound 143] | ≥ 80%
COc1ccc(NC(=O)c2cc3c(cc2F)COB3O)c(OC)c1 [Compound 155] | ≥ 80%
O=C(Nc1ccccc1N1CCOCC1)c1cc2c(cc1F)COB2O [Compound 170] | ≥ 80%
O=C(Nc1ccc(S(=O)(=O)Nc2ccccn2)cc1)c1cc2c(cc1F)COB2O [Compound 174] | ≥ 80%
O=C(Nc1ccc2ccccc2n1)c1cc2c(cc1F)COB2O [Compound 179] | ≥ 80%
Cc1nnc(NC(=O)c2cc3c(cc2F)COB3O)s1 [Compound 184] | ≥ 80%
O=C(Nc1ccc(Oc2ccccc2)nc1)c1cc2c(cc1F)COB2O [Compound 185] | ≥ 80%
N#CCOC(=O)c1cc2c(cc1Cl)COB2O [Compound 213] | ≥ 80%
O=C(NCc1ccccc1F)c1ccc2c(c1)B(O)OC2 [Compound 262] | ≥ 80%
O=C(NCc1cccc(Cl)c1)c1ccc2c(c1)B(O)OC2 [Compound 268] | ≥ 80%
O=C(NCc1ccccc1OC(F)(F)F)c1ccc2c(c1)B(O)OC2 [Compound 273] | ≥ 80%
CC(C)c1ccc(NC(=O)c2ccc3c(c2)B(O)OC3)cc1 [Compound 279] | ≥ 80%
COc1ccc(NC(=O)c2ccc3c(c2)B(O)OC3)c(OC)c1 [Compound 283] | ≥ 80%
O=C(Nc1cccc(F)c1)c1ccc2c(c1)B(O)OC2 [Compound 285] | ≥ 80%
COc1ccc(-c2ccccc2)cc1NC(=O)c1ccc2c(c1)B(O)OC2 [Compound 289] | ≥ 80%
O=C(Nc1ccccc1-c1cc2ccccc2[nH]1)c1ccc2c(c1)B(O)OC2 [Compound 292] | ≥ 80%
O=C(Nc1ccc(Oc2ccccc2)nc1)c1ccc2c(c1)B(O)OC2 [Compound 306] | ≥ 80%
CC(F)COC(=O)c1ccc2c(c1)B(O)OC2 (centres unmarked) [Compound 335] | ≥ 80%
N#CCOC(=O)c1ccc2c(c1)B(O)OC2 [Compound 338] | ≥ 80%
N#CCCOC(=O)c1ccc2c(c1)B(O)OC2 [Compound 357] | ≥ 80%
O=C(OC1CCOC1)c1ccc2c(c1)B(O)OC2 (centres unmarked) [Compound 364] | ≥ 80%

What follows are molecules tested on Mycosphaerella graminicola (Septoria tritici) (assay: Mycosphaerella graminicola (Septoria tritici) / liquid culture (Septoria blotch)). Conditions: Zymoseptoria tritici, PDB potato dextrose broth, 24° C., 4-5 days after application, read-out: disease control (inhibition of growth determined photometrically).
Type: cell-based
Method: 13. Mycosphaerella graminicola (Septoria tritici)/Liquid Culture (Septoria Blotch): Conidia of the fungus from cryogenic storage were directly mixed into nutrient broth (PDB potato dextrose broth). After placing a DMSO solution of test compound into a 96-well microtiter plate at an application rate of 200 ppm, the nutrient broth containing the fungal spores was added. The test plates were incubated at 24° C. and the inhibition of growth was determined photometrically 4-5 days after application.

Structure (SMILES) | inhibition at 200 ppm
O=C(Nc1ccc2ccccc2n1)c1cc2c(cc1F)COB2O [Compound 179] | ≥ 80%

The molecules below were run on Gaeumannomyces graminis (assay: Gaeumannomyces graminis / liquid culture (take-all of cereals)). Conditions: PDB potato dextrose broth, 24° C., 4-5 days after application, read-out: disease control (inhibition of growth determined photometrically).
Type: cell-based
Method: 14. Gaeumannomyces graminis/Liquid Culture (Take-all of Cereals): Mycelial fragments of the fungus from cryogenic storage were directly mixed into nutrient broth (PDB potato dextrose broth). After placing a DMSO solution of test compound into a 96-well microtiter plate at an application rate of 200 ppm, the nutrient broth […], containing the fungal spores is added. The test plates were incubated at 24° C. and the inhibition of growth was determined photometrically 4-5 days after application.

Structure (SMILES) | inhibition at 200 ppm
O=C(NCc1ccc(Oc2ccccc2)cc1)c1cc2c(cc1Cl)COB2O [Compound 103] | ≥ 80%
O=C(Nc1ccc2ccccc2n1)c1cc2c(cc1F)COB2O [Compound 179] | ≥ 80%
O=C(Nc1ccccc1-c1cc2ccccc2[nH]1)c1ccc2c(c1)B(O)OC2 [Compound 292] | ≥ 80%

Each molecule was assayed on Monographella nivalis (Microdochium nivale) (assay: Monographella nivalis (Microdochium nivale) / liquid culture (foot rot cereals)). Conditions: PDB potato dextrose broth, 24° C., 4-5 days after application, read-out: disease control (inhibition of growth determined photometrically).
Type: cell-based

Structure (SMILES) | inhibition at 200 ppm
O=C(NCc1ccccc1OC(F)(F)F)c1cc2c(cc1Cl)COB2O [Compound 95] | ≥ 80%
O=C(NCc1ccc(Oc2ccccc2)cc1)c1cc2c(cc1Cl)COB2O [Compound 103] | ≥ 80%
O=C(Nc1ccc2ccccc2n1)c1cc2c(cc1F)COB2O [Compound 179] | ≥ 80%
CC(C)c1ccc(NC(=O)c2ccc3c(c2)B(O)OC3)cc1 [Compound 279] | ≥ 80%
COC(=O)c1sccc1NC(=O)c1ccc2c(c1)B(O)OC2 [Compound 308] | ≥ 80%

Each molecule was assayed on Thanatephorus cucumeris (Rhizoctonia solani) (assay: Thanatephorus cucumeris (Rhizoctonia solani) / liquid culture (foot rot, damping-off)). Conditions: PDB potato dextrose broth, 24° C., 3-4 days after application, read-out: disease control (inhibition of growth determined photometrically).
Type: cell-based
Method: 17. Thanatephorus cucumeris (Rhizoctonia solani)/Liquid Culture (Foot Rot, Damping-Off): Mycelia fragments of a newly grown liquid culture of the fungus were directly mixed into nutrient broth (PDB potato dextrose broth). After placing a DMSO solution of the test compounds into a 96-well microtiter plate at an application rate of 200 ppm, the nutrient broth containing the fungal material was added. The test plates were incubated at 24° C. and the inhibition of growth was determined photometrically 3-4 days after application.

Structure (SMILES) | inhibition at 200 ppm
CC(F)COC(=O)c1ccc2c(c1)B(O)OC2 (centres unmarked) [Compound 335] | ≥ 80%
N#CCOC(=O)c1ccc2c(c1)B(O)OC2 [Compound 338] | ≥ 80%
O=C(OC1CCOC1)c1ccc2c(c1)B(O)OC2 (centres unmarked) [Compound 364] | ≥ 80%
